Results taken from patent US10556907B2 (AbbVie Inc., priority 2015, dated 2020).
Counter-ions that a name gives are not always drawn.

Columns and labels:
Assay in all cases: Method 1: intracellular Ca2+ release (FLIPR, Calcium 5) in recombinant CHO-K1 cells
Assay type in all cases: cell-based
human S1PR4 receptor = biological target: T1, human S1PR4 receptor (Homo sapiens, UniProt O95977); details: (1): determined with method 1; read-out: S1P4 EC50
T1 construct: host or cells: CHO-K1
T1 sequence (O95977 1-384): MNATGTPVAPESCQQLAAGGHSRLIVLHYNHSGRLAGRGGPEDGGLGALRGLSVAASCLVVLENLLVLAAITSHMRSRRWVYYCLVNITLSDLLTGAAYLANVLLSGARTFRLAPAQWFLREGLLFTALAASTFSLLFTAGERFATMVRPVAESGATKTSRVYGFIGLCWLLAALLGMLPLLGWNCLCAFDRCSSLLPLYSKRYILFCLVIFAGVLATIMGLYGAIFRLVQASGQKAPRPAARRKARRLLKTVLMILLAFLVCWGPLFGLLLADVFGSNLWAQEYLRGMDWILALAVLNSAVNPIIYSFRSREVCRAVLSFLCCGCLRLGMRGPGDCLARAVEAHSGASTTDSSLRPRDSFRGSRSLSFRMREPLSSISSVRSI
Outline: (§1)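 Agonist EC50 values come from nonlinear fits of FLIPR Ca2+ fluorescence, normalized to the phospho-fingolimod reference curve. Recombinant CHO-K1 (receptor plus Gq/i5, aequorin) dye-loaded 1 h at 37° C in pH 7.4 Hepes/probenecid/BSA buffer. Antagonist mode: 10 min preincubation before phospho-fingolimod at EC80.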

human S1PR1 receptor = biological target: T2, human S1PR1 receptor (Homo sapiens, UniProt P21453); details: (1): determined with method 1; read-out: S1P1 EC50
T2 construct: host or cells: CHO-K1
T2 sequence (P21453 whole entry): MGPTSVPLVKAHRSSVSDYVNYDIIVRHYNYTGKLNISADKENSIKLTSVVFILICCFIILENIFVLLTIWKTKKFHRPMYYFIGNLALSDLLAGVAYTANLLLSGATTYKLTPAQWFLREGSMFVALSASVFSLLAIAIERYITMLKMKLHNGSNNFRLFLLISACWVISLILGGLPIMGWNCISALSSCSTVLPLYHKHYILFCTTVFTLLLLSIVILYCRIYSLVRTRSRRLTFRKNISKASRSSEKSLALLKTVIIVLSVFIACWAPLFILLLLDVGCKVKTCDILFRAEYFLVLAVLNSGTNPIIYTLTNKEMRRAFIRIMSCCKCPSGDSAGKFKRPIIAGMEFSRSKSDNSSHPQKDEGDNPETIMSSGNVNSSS
Outline: as §1

human S1PR5 receptor = biological target: T3, human S1PR5 receptor (Homo sapiens, UniProt Q9H228); details: agonist potency, determined with method 1 (symbols A-D); read-out: S1P5 EC50 range
T3 construct: host or cells: CHO-K1
T3 sequence (Q9H228 whole entry): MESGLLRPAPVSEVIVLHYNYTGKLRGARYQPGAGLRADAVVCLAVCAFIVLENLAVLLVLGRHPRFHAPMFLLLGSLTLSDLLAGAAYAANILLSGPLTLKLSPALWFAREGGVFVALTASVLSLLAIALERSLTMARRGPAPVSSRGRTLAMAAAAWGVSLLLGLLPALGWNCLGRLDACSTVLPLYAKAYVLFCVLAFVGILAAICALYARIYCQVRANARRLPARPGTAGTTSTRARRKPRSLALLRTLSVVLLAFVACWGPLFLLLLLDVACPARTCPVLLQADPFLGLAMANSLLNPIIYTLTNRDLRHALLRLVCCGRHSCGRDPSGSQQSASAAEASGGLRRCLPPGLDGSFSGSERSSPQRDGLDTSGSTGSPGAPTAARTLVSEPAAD
Outline: as §1

human S1PR3 receptor = biological target: T4, human S1PR3 receptor (Homo sapiens, UniProt Q99500); details: (1): determined with method 1; read-out: S1P3 EC50
T4 construct: host or cells: CHO-K1
T4 sequence (Q99500 whole entry): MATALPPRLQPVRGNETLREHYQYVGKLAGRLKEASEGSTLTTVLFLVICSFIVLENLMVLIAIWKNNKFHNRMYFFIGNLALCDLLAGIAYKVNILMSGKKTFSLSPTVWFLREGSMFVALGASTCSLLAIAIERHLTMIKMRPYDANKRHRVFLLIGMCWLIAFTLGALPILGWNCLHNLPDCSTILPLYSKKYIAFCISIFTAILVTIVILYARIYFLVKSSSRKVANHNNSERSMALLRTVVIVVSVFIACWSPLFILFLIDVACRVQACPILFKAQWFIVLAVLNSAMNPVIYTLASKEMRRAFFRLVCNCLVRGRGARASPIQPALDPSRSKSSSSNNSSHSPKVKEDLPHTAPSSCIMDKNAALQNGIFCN
Outline: as §1

Structure (SMILES)	EC50 (human S1PR4 receptor) [nM]	EC50 (human S1PR1 receptor) [nM]	EC50 (human S1PR5 receptor) [nM]	EC50 (human S1PR3 receptor) [nM]
Cc1cc(-c2ncc3c(n2)CCN(CC(C)CC(=O)O)C3)ccc1OCc1ccccc1 (centres unmarked) [Compound 251, 4-(2-(4-(benzyloxy)-3-methylphenyl)-7,8-dihydropyrido[4,3-d]pyrimidin-6(5H)-yl)-3-methylbutanoic acid]	> 1000	> 1000	< 10	> 1000
CC(CC(=O)O)CN1CCc2nc(-c3ccc(OCc4ccccc4F)cc3F)ncc2C1 (centres unmarked) [Compound 242, 4-[2-[2-fluoro-4-[(2-fluorophenyl)methoxy]phenyl]-7,8-dihydro-5H-pyrido[4,3-d]pyrimidin-6-yl]-3-methyl-butanoic acid 2,2,2-trifluoroacetic acid salt]	> 1000	> 1000	< 10	> 1000
O=C(O)CCN1CCc2cc(OCc3c(Cl)cccc3Cl)ncc2C1 [Compound 219, 3-(6-((2,6-dichlorobenzyl)oxy)-3,4-dihydro-2,7-naphthyridin-2(1H)-yl)propanoic acid hydrochloride]	> 1000	> 1000	100 to 1000	> 1000
CC(CN1CCc2nc(-c3ccc(OCc4cc(Cl)cc(Cl)c4)cc3)ncc2C1)C(=O)O (centres unmarked) [Compound 17, 3-(2-(4-((3,5-dichlorobenzyl)oxy)phenyl)-7,8-dihydropyrido[4,3-d]pyrimidin-6(5H)-yl)-2-methylpropanoic acid]	> 1000	> 1000	< 10	> 1000
O=C(O)CCN1CCc2nc(-c3ccc(OCc4cccc(C(F)(F)F)c4)cc3)ccc2C1 [Compound 157, 3-(2-(4-((3-trifluoromethylbenzyl)oxy)phenyl)-7,8-dihydro-1,6-naphthyridin-6(5H)-yl)propanoic acid]	> 1000	> 1000	< 10	> 1000
Cc1ccc(COc2ccc(-c3ncc4c(n3)CCN(CCC(=O)O)C4)cc2)cc1C(F)(F)F [Compound 89, 3-(2-(4-((4-methyl-3-(trifluoromethyl)benzyl)oxy)phenyl)-7,8-dihydropyrido[4,3-d]pyrimidin-6(5H)-yl)propanoic acid]	> 1000	> 1000	< 10	> 1000
Cc1cc(COc2ccc(-c3ccc4c(n3)CCN(CCC(=O)O)C4)cc2)cc(OC(F)(F)F)c1 [Compound 160, 3-(2-(4-((3-trifluoromethoxy-5-(methyl)benzyl)oxy)phenyl)-7,8-dihydro-1,6-naphthyridin-6(5H)-yl)propanoic acid]	> 1000	> 1000	10 to 100	> 1000
O=C(O)CCCN1CCc2nc(-c3ccc(OCc4ccc(Cl)cc4)cc3)ncc2C1 [Compound 40, 4-(2-(4-((4-chlorobenzyl)oxy)phenyl)-7,8-dihydropyrido[4,3-d]pyrimidin-6(5H)-yl)butanoic acid]	> 1000	> 1000	< 10	> 1000
O=C(O)C1CC(N2CCc3nc(C#Cc4ccc(Cl)cc4)ncc3C2)C1 (centres unmarked) [Compound 54, 3-(2-((4-chlorophenyl)ethynyl)-7,8-dihydropyrido[4,3-d]pyrimidin-6(5H)-yl)cyclobutanecarboxylic acid]	> 1000	> 1000	1000 to 10000	> 1000
CC(CC(=O)O)CN1CCc2nc(-c3ccc(OCc4ccc(Cl)c(Cl)c4)cc3F)ncc2C1 (centres unmarked) [Compound 271, 4-[2-[4-[(3,4-dichlorophenyl)methoxy]-2-fluoro-phenyl]-7,8-dihydro-5H-pyrido[4,3-d]pyrimidin-6-yl]-3-methyl-butanoic acid 2,2,2-trifluoroacetic acid salt]	> 1000	> 1000	10 to 100	> 1000
CC(CC(=O)O)CN1CCc2nc(-c3ccc(CCc4ccc(Cl)cc4F)cc3)ncc2C1 (centres unmarked) [Compound 250, 4-(2-(4-(4-chloro-2-fluorophenethyl)phenyl)-7,8-dihydropyrido[4,3-d]pyrimidin-6(5H)-yl)-3-methylbutanoic acid]	> 1000	> 1000	< 10	> 1000
